Literature values in patent US10822400B2, “Dynamin 2 inhibitor for the treatment of Duchenne's muscular dystrophy” (UNIVERSITE DE STRASBOURG, priority 2015, dated 2020).
Blank lines part the entries; values can stand above or below the compound they belong to.

Key:
[1] = biological target: receptor-mediated and synaptic vesicle endocytosis; settings: read-out: IC50 for inhibition of receptor-mediated and synaptic vesicle endocytosis
mitochondrial division = settings: read-out: IC50 as mitochondrial division inhibitor
dynamin 2 = biological target: T1, dynamin 2 (Homo sapiens, UniProt P50570); settings: read-out: IC50 for inhibition of dynamin 2 (dynamin II)
T1 sequence (P50570 1-870): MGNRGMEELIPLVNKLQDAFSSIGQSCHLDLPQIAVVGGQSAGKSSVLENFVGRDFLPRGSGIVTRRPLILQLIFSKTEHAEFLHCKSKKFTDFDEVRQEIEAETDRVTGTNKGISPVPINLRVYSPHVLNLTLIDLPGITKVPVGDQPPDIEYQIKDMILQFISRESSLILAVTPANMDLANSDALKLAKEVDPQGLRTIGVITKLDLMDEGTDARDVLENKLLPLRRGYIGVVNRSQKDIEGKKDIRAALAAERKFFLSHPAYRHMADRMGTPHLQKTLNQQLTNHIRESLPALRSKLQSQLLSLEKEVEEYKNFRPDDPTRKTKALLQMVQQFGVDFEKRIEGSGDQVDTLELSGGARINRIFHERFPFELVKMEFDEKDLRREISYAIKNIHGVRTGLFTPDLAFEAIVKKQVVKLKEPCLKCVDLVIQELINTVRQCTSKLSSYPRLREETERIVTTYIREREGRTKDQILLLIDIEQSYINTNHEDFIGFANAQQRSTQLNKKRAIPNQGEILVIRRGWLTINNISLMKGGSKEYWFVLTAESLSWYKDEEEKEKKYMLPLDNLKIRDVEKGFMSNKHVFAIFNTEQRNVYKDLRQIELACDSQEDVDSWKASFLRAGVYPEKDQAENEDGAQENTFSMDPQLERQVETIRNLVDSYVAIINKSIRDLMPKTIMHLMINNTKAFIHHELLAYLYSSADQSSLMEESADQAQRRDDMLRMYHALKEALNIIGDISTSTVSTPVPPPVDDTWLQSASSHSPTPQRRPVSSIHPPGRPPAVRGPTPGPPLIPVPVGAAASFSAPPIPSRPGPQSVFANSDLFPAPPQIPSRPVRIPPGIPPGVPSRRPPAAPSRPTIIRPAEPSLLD

IC50 [1]: 2.2 µM
Compound: CCCCCCCCCCCCCC[N+](C)(C)C [MiTMAB, Tetradecyltrimethylammonium bromide]

Compound: COc1cc(-n2c(S)nc3ccccc3c2=O)c(Cl)cc1Cl [M-divi 1, 3-(2,4-Dichloro-5-methoxyphenyl)-2-sulfanylquinazolin-4(3H)-one]
IC50 (mitochondrial division): 10 µM

IC50 (dynamin 2): 2.6 µM
Compound: O=C(NN=Cc1cc(O)c(O)cc1O)c1cc2ccccc2cc1O [Hydroxy-Dynasore, 3-Hydroxy-N′-[(2,4,5-trihydroxyphenyl)methylidene]naphthalene-2-carbohydrazide]
